Data reported in US4894340A, “Microbial sulfhydryl oxidase and method” (priority 1987, dated 1990).
Where two headings read alike, the source gives them in different places.

Experiments:
[1] = test system: A. niger sulfhydryl oxidase; assay: Polarographic O2 depletion assay of sulfhydryl oxidase with thiol compounds and substrates of other oxidases; assay type: biochemical, Aspergillus niger; conditions: for Activity toward substrates of other known oxidases: test compound 10 mM in 40 mM sodium acetate at pH 5.5; for kcat (app)/Km (app) (head is drawing 1) / kcat (app) / Km: purified enzyme, polarographic assay; for kcat (app) / Km: double reciprocal plot; for Km: read-out: Km (app)
Description: Two assays have been employed to determine SHX activity. The first assay is based on the depletion of O2 from assay mixtures containing thiol compounds; oxygen depletion is measured polarographically by oxygen electrode techniques. One unit of SHX is defined as that amount of enzyme which would utilize or consume 1 umol of O2 per minute under the conditions of the assay.
Rates of O2 depletion by the purified enzyme were measured at selected concentrations of GSH, cysteine, dithiothreitol and 2-mercapto-ethanol. […] Kinetic constants were calculated from the double reciprocal plot by linear regression fitting of the data points.
The enzyme was tested for activity toward substrates of other known oxidases, including D-glucose, D-fructose, L-lysine, D-lysine, benzylamine, xanthine, putrescine, catechol, nicotinamide adenine dinucleotide (reduced) ("NADH") and nicotinamide adenine dinucleotide phosphate (reduced) ("NADPH").
In a typical assay, 2.9 mL of a mixture consisting of a thiol compound in an appropriate buffer was equilibrated with stirring to 25° C. After the vial was sealed with the electrode, a volume of 0.1 mL of enzyme solution was injected into the assay mixture. […] One unit of sulfhydryl oxidase was defined as that amount of enzyme which would deplete 1 umole of O2 per minute under the conditions of the assay. Unless otherwise indicated, the assay mixture contained 8 mM GSH in 40 mM acetate buffer, pH 5.5, at 25° C.

[2] = test system: A. niger sulfhydryl oxidase; assay: NAD/NADP as electron acceptors, absorbance at 340 nm; assay type: biochemical, Aspergillus niger; conditions: in the presence of sulfhydryl oxidase and 4 mM GSH
[3] = test system: sulfhydryl apooxidase; assay: Reactivation of sulfhydryl apooxidase by resolved flavins or standards; assay type: biochemical, Aspergillus niger; conditions: for Activity: apooxidase after 14 hours incubation at 0° C. with resolved flavins or standards
Text: At […], FAD is weakly fluorescent owing to quenching by its adenine moiety. FMN and other nonadenylated flavins, on the other hand, fluoresce strongly under both conditions of pH (Bessey et al., 1949); Cerletti and Siliprandi, 1958). Thus the ratio of fluorescence at basic pH to that at acidic pH distinguishes adenylated from nonadenylated flavins. […] When the isolated flavins were recombined with sulfhydryl apooxidase, only the product of treatment by boiling was capable of restoring activity to the enzyme.
Determination of sulfhydryl oxidase activity was based upon depletion of O2 from assay mixtures containing thiol compounds, as measured with a Yellow Springs Instruments oxygen monitor (model 500) equipped with a polarographic Clark-type electrodes. In a typical assay, 2.9 mL of a mixture consisting of a thiol compound in an appropriate buffer was equilibrated with stirring to 25° C. After the vial was sealed with the electrode, a volume of 0.1 mL of enzyme solution was injected into the assay mixture. The rate of oxygen depletion was constant during the first 30 seconds of the assay; thus, the initial rate of O2 depletion was taken to be sulfhydryl oxidase activity under the prevailing conditions. One unit of sulfhydryl oxidase was defined as that amount of enzyme which would deplete 1 umole of O2 per minute under the conditions of the assay. Unless otherwise indicated, the assay mixture contained 8 mM GSH in 40 mM acetate buffer, pH 5.5, at 25° C.
In reactivation experiments, freshly prepared apoenzyme was combined with flavin solution and 0.1M sodium phosphate buffer, pH 7.0, in the volume proportions 1:1:2. This mixture was incubated for 14 to 16 hours at 0° C. After the incubation period, the enzyme was separated from excess free flavin by passage through a Pharmacia PD-10 column equilibrated and eluted with 40 mM acetate buffer, pH 5.5.
The flavin component was also extracted from the enzyme by two other methods. Dialyzed sulfhydryl oxidase was boiled for 5 minutes with protection from light and cooled quickly by immersion in ice water. […]

[4] = test system: A. niger sulfhydryl oxidase; assay: Sulfhydryl oxidase activity in presence of chelating agents; assay type: biochemical, Aspergillus niger; conditions: 1 mM chelating agent in 0.05M phosphate buffer, pH 7.0, even after overnight incubation
Text: Since flavin oxidases containing essential metal ions are known to exist, sulfhydryl oxidase was examined for changes in activity upon treatment with the chelating agents.

[5] = biological target: T1, flavin sulfhydryl oxidase from rat epididymal fluid (Rattus norvegicus, UniProt Q6IUU3); conditions: concentrations as high as 0.1M; cited from earlier work
T1 construct: flavin sulfhydryl oxidase from rat epididymal fluid; host or cells: rat epididymal fluid as printed
T1 sequence (Q6IUU3 33-750): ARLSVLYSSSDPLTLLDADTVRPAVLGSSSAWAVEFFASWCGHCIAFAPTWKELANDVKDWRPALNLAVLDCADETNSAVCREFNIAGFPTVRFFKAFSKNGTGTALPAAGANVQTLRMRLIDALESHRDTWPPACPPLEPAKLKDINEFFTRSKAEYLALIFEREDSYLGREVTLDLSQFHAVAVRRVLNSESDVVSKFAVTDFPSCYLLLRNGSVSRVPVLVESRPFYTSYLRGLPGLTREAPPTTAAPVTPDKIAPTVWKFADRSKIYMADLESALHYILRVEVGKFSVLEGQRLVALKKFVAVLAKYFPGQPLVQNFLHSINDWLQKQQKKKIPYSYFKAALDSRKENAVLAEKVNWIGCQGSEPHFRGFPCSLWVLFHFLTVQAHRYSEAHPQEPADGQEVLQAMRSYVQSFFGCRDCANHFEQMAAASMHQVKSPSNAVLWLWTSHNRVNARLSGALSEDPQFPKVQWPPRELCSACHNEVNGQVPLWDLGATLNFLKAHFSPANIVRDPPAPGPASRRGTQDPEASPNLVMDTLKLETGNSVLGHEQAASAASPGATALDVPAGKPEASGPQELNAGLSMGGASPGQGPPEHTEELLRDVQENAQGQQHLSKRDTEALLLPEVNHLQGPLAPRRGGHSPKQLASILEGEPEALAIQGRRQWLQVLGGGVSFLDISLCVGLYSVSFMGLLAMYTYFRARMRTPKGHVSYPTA

[6] = biological target: A. niger sulfhydryl oxidase; assay: Spectral titration with sodium sulfite (flavin-sulfite complex); assay type: binding, Aspergillus niger; conditions: read-out: Dissociation constant Kd of flavin-sulfite complex
Description: FIG. 3: Absorption spectra of purified sulfhydryl oxidase after reaction with sodium sulfite at pH 6, showing bleaching of the visible bond of SHX spectrum. Each spectrum was recorded 10 minutes after the addition of a small aliquot of sodium sulfite to a cuvette containing 1.8 mg/mL SHX in 50 mM sodium phosphate. Sulfite concentrations after each addition were 0 mM(1), 0.99 mM(2), 2.44 mM(3) and 152 mM(4).
Additional spectral analysis confirms that the SHX of the present invention is a flavoprotein. Most flavin oxidases, but not flavin dehydrogenases, react with sodium sulfite to form a bleached flavin-sulfite complex (Massey et al., 1969). The spectral change incurred by incubation of sulfhydryl oxidase with sodium sulfite at varying concentrations is show in FIG. 3. The dissociation constant Kd =[SHX][SO2 ]/[SHX-SO2 ]for the sulfhydryl oxidase flavin-sulfite complex was calculated from the first few spectra under the assumption that spectrum 4 in FIG. 3 represented full conversion of the enzyme to the sulfite complex, and that the initial excess of sulfite was so large that its concentration was essentially unchanged at equilibrium. The first assumption was justified by the fact that spectrum 4 (152.8 mM sulfite) was identical with the spectrum recorded when the sulfite concentration was just 42.8 mM (not shown).

OC[C@H]1OC(O)[C@H](O)[C@@H](O)[C@@H]1O (stereo partly drawn) [D-glucose]
Activity toward substrates of other known oxidases [1]: failed to stimulate

NC(=O)c1ccc[n+]([C@@H]2O[C@H](COP(=O)([O-])OP(=O)(O)OC[C@H]3O[C@@H](n4cnc5c(N)ncnc54)[C@H](OP(=O)(O)O)[C@@H]3O)[C@@H](O)[C@H]2O)c1 [NADP]
Electron acceptor, increase in absorbance at 340 nm [2]: did not act as electron acceptors

Cc1cc2nc3c(=O)[nH]c(=O)nc-3n(C[C@H](O)[C@H](O)[C@H](O)COP(=O)(O)OP(=O)(O)OC[C@H]3O[C@@H](n4cnc5c(N)ncnc54)[C@H](O)[C@@H]3O)c2cc1C [Authentic FAD, flavin adenine dinucleotide]
Activity [3]: 0.58 units/mL

NC(=O)c1ccc[n+]([C@@H]2O[C@H](COP(=O)([O-])OP(=O)(O)OC[C@H]3O[C@@H](n4cnc5c(N)ncnc54)[C@H](O)[C@@H]3O)[C@@H](O)[C@H]2O)c1 [NAD]
Electron acceptor, increase in absorbance at 340 nm [2]: did not act as electron acceptors

NC(=O)C1=CN([C@@H]2O[C@H](COP(=O)(O)OP(=O)(O)OC[C@H]3O[C@@H](n4cnc5c(N)ncnc54)[C@H](O)[C@@H]3O)[C@@H](O)[C@H]2O)C=CC1 [NADH, nicotinamide adenine dinucleotide (reduced)]
Activity toward substrates of other known oxidases [1]: failed to stimulate

O[C@H](CS)[C@H](O)CS (racemic) [Dithiothreitol]
kcat (app)/Km (app) (head is drawing 1) [1]: 110 min^-1 M^- 1 | kcat (app) [1]: 119 s⁻¹ | Km [1]: 66 mM

NC(=O)C1=CN([C@@H]2O[C@H](COP(=O)(O)OP(=O)(O)OC[C@H]3O[C@@H](n4cnc5c(N)ncnc54)[C@H](OP(=O)(O)O)[C@@H]3O)[C@@H](O)[C@H]2O)C=CC1 [NADPH, nicotinamide adenine dinucleotide phosphate (reduced)]
Activity toward substrates of other known oxidases [1]: failed to stimulate

NCCCC[C@H](N)C(=O)O [L-lysine]
Activity toward substrates of other known oxidases [1]: failed to stimulate

c1cnc2c(c1)ccc1cccnc12 [o-phenanthroline]
Change in sulfhydryl oxidase activity [4]: No activity decreases

OCCS [2-Mercaptoethanol]
kcat (app)/Km (app) (head is drawing 1) [1]: 26 min^-1 M^- 1 | kcat (app) [1]: 145.2 s⁻¹

O=c1[nH]c(=O)c2[nH]cnc2[nH]1 [xanthine]
Activity toward substrates of other known oxidases [1]: failed to stimulate

N[C@@H](CS)C(=O)O [Cysteine]
kcat (app)/Km (app) (head is drawing 1) [1]: 230 min^-1 M^- 1 | kcat (app) [1]: 166.2 s⁻¹ | Km [1]: 43 mM

N[C@@H](CCC(=O)N[C@@H](CS)C(=O)NCC(=O)O)C(=O)O [Glutathione]
kcat (app)/Km (app) (head is drawing 1) [1]: 26,000 min^-1 M^- 1 | kcat (app) [1]: 131.2 s⁻¹ | Km [1]: 0.3 mM

NCCCC[C@@H](N)C(=O)O [D-lysine]
Activity toward substrates of other known oxidases [1]: failed to stimulate

Cc1cc2nc3c(=O)[nH]c(=O)nc-3n(C[C@H](O)[C@H](O)[C@H](O)COP(=O)(O)O)c2cc1C [Authentic FMN, flavin mononucleotide]
Activity [3]: 0.0 units/mL | Restoration of apooxidase activity toward GSH ([3]; excess FMN, pH 3 to 9, various buffer salts): did not result in any detectable restoration of activity

Oc1ccccc1O [catechol]
Activity toward substrates of other known oxidases [1]: failed to stimulate

Oc1cccc2cccnc12 [8-hydroxyquinoline]
Change in sulfhydryl oxidase activity [4]: No activity decreases

O=C(CO)[C@@H](O)[C@H](O)[C@H](O)CO [D-fructose]
Activity toward substrates of other known oxidases [1]: failed to stimulate

O=S([O-])[O-].[Na+].[Na+] [sodium sulfite]
Reaction with sulfite (changes in visible spectrum) [5]: failed to react | Kd ([6]; from spectrum 1 of FIG. 3, pH 6, 50 mM sodium phosphate): 3040 µM | Kd ([6]; from spectrum 2 of FIG. 3, pH 6, 50 mM sodium phosphate): 2950 µM

NCc1ccccc1 [benzylamine]
Activity toward substrates of other known oxidases [1]: failed to stimulate

NCCCCN [putrescine]
Activity toward substrates of other known oxidases [1]: failed to stimulate
